Experiments:
[1] = biological target: T1, Orexin type 1 (OX1R) receptor (Homo sapiens, UniProt O43613); assay: In vitro orexin antagonism assay: intracellular calcium measurement (FLIPR), orexin-A 3 nM as agonist; assay type: cell-based; details: for IC50: first value of IC50/Kb cell; for Kb: second value of IC50/Kb cell; for inhibition at 1 µM: read-out: OX1R, % Inh. @ 1 uM
T1 construct: expressed in transfected cells; host or cells: CHO cells (G418 selection)
T1 sequence (O43613 1-425): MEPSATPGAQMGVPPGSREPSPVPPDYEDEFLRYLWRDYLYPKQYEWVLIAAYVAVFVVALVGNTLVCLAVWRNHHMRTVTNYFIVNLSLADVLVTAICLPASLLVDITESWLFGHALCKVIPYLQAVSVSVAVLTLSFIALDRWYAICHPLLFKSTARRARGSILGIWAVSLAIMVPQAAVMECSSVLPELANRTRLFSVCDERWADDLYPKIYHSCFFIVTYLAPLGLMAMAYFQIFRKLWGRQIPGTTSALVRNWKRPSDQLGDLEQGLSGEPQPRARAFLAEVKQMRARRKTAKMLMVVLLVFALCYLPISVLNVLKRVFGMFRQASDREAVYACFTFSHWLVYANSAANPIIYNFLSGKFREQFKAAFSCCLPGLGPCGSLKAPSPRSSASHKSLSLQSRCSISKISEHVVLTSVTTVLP
Procedure, shortened: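 CHO cells expressing the human orexin receptor were loaded with 3 μM fluo-4 AM plus 5 mM probenecid, then exposed to antagonist for 120 min before 3 nM orexin-A (final) was added on a FLIPR.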

[2] = biological target: T2, human k-opioid receptor (kOR) (Homo sapiens, UniProt P41145); assay: Human k-opioid (KOP) receptor (agonist radioligand [3H]U-69593) binding assay, transfected RBL cell membranes; details: for inhibition at 1 µM: read-out: KOR % Inh. @ 1 uM
T2 construct: expressed in transfected cells; host or cells: RBL cells (membrane homogenates)
Procedure: Human k-Opioid (KOP) Receptor (Agonist Radioligand) Binding Assay
Purpose: Evaluation of the affinity of compounds for the human k-opioid receptor in transfected RBL cells determined in a radioligand binding assay.
Experimental protocol: Cell membrane homogenates (about 80 μg protein) are incubated for 60 min at 22° C. with 0.5 nM [3H]U-69593 in the absence or presence of the test compound in a buffer containing 50 mM Tris-HCl (pH 7.4), 10 mM MgCl2 and 1 mM EDTA. Nonspecific binding is determined in the presence of 10 μM naloxone. Following incubation, the samples are filtered rapidly under vacuum through glass fiber filters ([…], Packard) presoaked with 0.3% PEI and rinsed several times with ice-cold 50 mM Tris-HCl using a 96-sample cell harvester (Unifilter, Packard). The filters are dried then counted for radioactivity in a scintillation counter (Topcount, Packard) using a scintillation cocktail (Microscint 0, Packard). The results are expressed as a percent inhibition of the control radioligand specific binding. The standard reference compound is U-50488, which is tested in each experiment at several concentrations to obtain a competition curve from which its IC50 is calculated.

[3] = biological target: T3, human orexin-2 receptor (OX2R) (Homo sapiens, UniProt O43614); assay: In vitro orexin antagonism assay: intracellular calcium measurement (FLIPR), orexin-A 3 nM as agonist; assay type: cell-based; details: for IC50: first value of IC50/Kb cell; for Kb: second value of IC50/Kb cell; for inhibition at 1 µM: read-out: OX2R, % Inh. @ 1 uM
T3 construct: expressed in transfected cells; host or cells: CHO cells (G418 selection)
T3 sequence (O43614 1-444): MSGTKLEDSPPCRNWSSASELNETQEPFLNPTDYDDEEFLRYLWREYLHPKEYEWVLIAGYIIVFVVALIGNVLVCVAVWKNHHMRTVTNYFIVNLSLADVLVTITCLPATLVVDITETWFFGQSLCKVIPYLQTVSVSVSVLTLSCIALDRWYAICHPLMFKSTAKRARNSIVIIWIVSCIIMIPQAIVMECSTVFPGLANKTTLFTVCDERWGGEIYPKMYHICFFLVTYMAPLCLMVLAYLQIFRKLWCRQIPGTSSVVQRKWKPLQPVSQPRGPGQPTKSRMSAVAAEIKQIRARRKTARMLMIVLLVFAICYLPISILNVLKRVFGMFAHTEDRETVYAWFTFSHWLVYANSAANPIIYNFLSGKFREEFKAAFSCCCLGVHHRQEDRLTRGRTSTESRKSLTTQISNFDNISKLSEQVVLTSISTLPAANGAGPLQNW
Procedure, shortened: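 Fluorescence peak on 3 nM orexin-A challenge, read by FLIPR and compared with vehicle, yields IC50 (geometric mean when repeated; may be normalized to an on-plate reference). Antagonists were added 120 min beforehand to fluo-4-loaded recombinant CHO cells expressing human OX1R or OX2R.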

T2 sequence (P41145 whole entry): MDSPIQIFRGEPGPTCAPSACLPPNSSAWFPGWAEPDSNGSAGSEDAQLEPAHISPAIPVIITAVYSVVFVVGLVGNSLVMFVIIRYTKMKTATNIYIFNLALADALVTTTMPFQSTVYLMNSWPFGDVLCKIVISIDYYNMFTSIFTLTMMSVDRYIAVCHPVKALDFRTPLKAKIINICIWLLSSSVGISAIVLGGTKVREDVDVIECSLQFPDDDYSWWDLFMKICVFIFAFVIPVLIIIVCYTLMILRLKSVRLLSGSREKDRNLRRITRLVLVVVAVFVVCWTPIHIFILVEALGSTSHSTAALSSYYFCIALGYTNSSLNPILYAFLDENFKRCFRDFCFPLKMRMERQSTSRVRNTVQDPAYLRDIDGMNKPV

Row | SMILES | OX1R, % Inh. @ 1 uM [1] [%] | IC50 [1] [nM] | Kb [1] [nM] | KOR % Inh. @ 1 uM [2] [%] | IC50 ([2]; first value of IC50/Ki cell) [nM] | Ki ([2]; second value of IC50/Ki cell) [nM] | OX2R, % Inh. @ 1 uM [3] [%] | IC50 [3] [nM] | Kb [3] [nM] | inhibition at 1 µM [1] [%] | inhibition at 1 µM [2] [%] | inhibition at 1 µM [3] [%]
1 | O=C(c1c(-c2ccccc2F)nn2c1COCC2)N1CCC[C@H]1Cn1ccc(-c2ccc(F)cc2)n1 [Example 66] | 84 | 33 | 7 | 77 | 220 | 120 | 68 | 131 | 18 |  |  | 
2 | O=C(c1c(-c2ccccc2F)nn2ccccc12)N1CCC[C@H]1Cn1ccc(-c2ccccn2)n1 [Example 67] |  | 13 | 3 |  |  |  |  | 20 | 4 | 100 | 27 | 74
3 | O=C(c1c(-c2ccccc2F)nn2ccccc12)N1CCC[C@H]1Cn1cc(-c2ccccn2)cn1 [Example 68] |  | 47 | 10 |  |  |  |  | 170 | 30 | 82 | 48 | 64
4 | O=C(c1c(-c2ccccc2)nc2ccc(F)cn12)N1CCC[C@H]1Cn1ccc(-c2ccccn2)n1 [Example 73] |  | 9 | 2 |  |  |  |  |  |  | 82 | 37 | 48
5 | O=C(c1c(-c2ccccc2)nc2cc(C(F)(F)F)ccn12)N1CCC[C@H]1Cn1ccc(-c2ccccn2)n1 [Example 78] |  | 160 | 34 |  |  |  |  | 270 | 48 | 78 | 52 | 55
6 | O=C(c1c(-c2ccccc2F)nn2ccccc12)N1CCC[C@H]1Cn1cc(-c2ccc(F)cn2)cn1 [Example 82] |  | 220 | 10 |  |  |  |  | 46 | 10 | 85 | 33 | 74
7 | O=C(c1c(-c2ccccc2)nn2c1COCC2)N1[C@@H]2CC[C@@H](C2)[C@H]1COc1ccc(C(F)(F)F)cn1 [Example 87] |  | 230 | 49 |  |  |  |  |  |  | 78 | 3 | 23
8 | O=C(c1c(-c2ccccc2)nn2ccccc12)N1[C@@H]2CC[C@@H](C2)[C@H]1COc1ccc(C(F)(F)F)cn1 [Example 88] |  | 37 | 8 |  |  |  |  | 360 | 63 | 97 | 22 | 66
9 | O=C(c1c(-c2ccccc2)nc2ccccn12)N1[C@@H]2CC[C@@H](C2)[C@H]1COc1ccc(C(F)(F)F)cn1 [Example 89] |  | 80 | 2 |  |  |  |  |  |  | 98 | 11 | 46
10 | O=C(c1c(-c2ccccc2F)nn2ccccc12)N1CCC[C@H]1Cn1ccc(-c2ccc(F)cn2)n1 [Example 90] | 99 | 6 | 1 | 33 |  |  | 84 | 15 | 3 |  |  | 
11 | O=C(c1nn2ccccc2c1-c1ccccc1)N1CCC[C@H]1Cn1ccc(-c2ccc(F)cn2)n1 [Example 111] |  | 14 | 3 |  |  |  |  | 43 | 8 | 100 | 21 | 79
12 | O=C(c1nn2ccccc2c1-c1ccccc1)N1CC[C@H]1Cn1ccc(-c2ccc(F)cn2)n1 [Example 115] |  | 650 | 140 |  |  |  |  |  |  | 60 | 51 | 38
13 | O=C(c1nn2ccccc2c1-c1ccccc1)N1CCC[C@H]1Cc1nc(-c2ccc(F)cn2)no1 [Example 117] |  | 2 | 0.3 |  |  |  |  | 150 | 26 | 100 | 19 | 69
14 | O=C(c1nc2ccccn2c1-c1ccccc1)N1CCC[C@H]1Cn1cc(-c2ccccn2)cn1 [Example 118] |  | 5 | 1 |  |  |  |  |  |  | 100 | 35 | 45
15 | O=C(c1nc2ccccn2c1-c1ccccc1)N1CCC[C@H]1Cn1ccc(-c2ccccn2)n1 [Example 119] |  | 5 | 1 |  |  |  |  |  |  | 100 | 6 | 37
16 | O=C(c1c(-c2ccccc2)nn2ccccc12)N1CCC[C@H]1Cc1nc(-c2ccc(F)cn2)no1 [Example 120] |  | 46 | 10 |  |  |  |  | 300 | 52 | 80 | 22 | 63
17 | O=C(c1nc2ccccn2c1-c1ccccc1)N1CCC[C@H]1Cn1cc(-c2ccc(F)cn2)cn1 [Example 122] |  | 10 | 2 |  |  |  |  |  |  | 99 | 15 | 51
18 | O=C(c1nc2ccccn2c1-c1ccccc1)N1[C@@H]2CC[C@@H](C2)[C@H]1COc1ccc(C(F)(F)F)cn1 [Example 125] |  | 190 | 41 |  |  |  |  | 20 | 3 | 93 | 7 | 57
19 | O=C(c1nc2ccccn2c1-c1ccccc1)N1[C@H](Cn2ccc(-c3ccc(F)cn3)n2)C[C@@H]2C[C@@H]21 [Example 126] |  | 17 | 4 |  |  |  |  |  |  | 99 | 10 | 24
20 | O=C(c1nc2ccccn2c1-c1ccccc1)N1CCC[C@H]1Cc1nc(-c2ccc(F)cn2)no1 [Example 127] |  | 5 | 1 |  |  |  |  |  |  | 100 | 17 | 31
21 | O=C(c1nc2ccccn2c1-c1ccccc1)N1CCC[C@H]1Cc1nc(-c2ccccn2)no1 [Example 128] |  | 7 | 1 |  |  |  |  |  |  | 100 | 19 | 17
22 | O=C(c1nn2c(c1-c1ccccc1)COCC2)N1CCC[C@H]1Cn1ccc(-c2ccccc2)n1 [Example 129] |  | 6 | 1 |  |  |  |  | 240 | 41 | 100 | 7 | 88
23 | O=C(c1nn2c(c1-c1ccccc1)OCCC2)N1CCC[C@H]1Cn1ccc(-c2ccccc2)n1 [Example 130] |  | 9 | 2 |  |  |  |  | 110 | 19 | 100 | 53 | 98
24 | O=C(c1c(-c2ncccn2)nn2ccccc12)N1CCC[C@H]1Cn1ccc(-c2ccccc2)n1 [Example 131] |  | 4 | 1 |  |  |  |  | 68 | 12 | 100 | 27 | 91
25 | O=C(c1c(-c2ccccn2)nn2ccccc12)N1CCC[C@H]1Cn1ccc(-c2ccccc2)n1 [Example 132] |  | 4 | 1 |  |  |  |  | 16 | 3 | 100 | 35 | 98

Reference: patent US20260070922A1, “PYRAZOLE AND IMIDAZOLE DERIVATIVES AS DUAL OREXIN AND KAPPA-OPIOID RECEPTORS MODULATORS COMPOSITION, METHODS FOR TREATING NEUROLOGICAL AND PSYCHIATRIC DISORDERS” (HAGER BIOSCIENCES, LLC, priority 2022, published 2026)
